Patent US20230416245A1, “ADENOSINE ANALOGS FOR THE TREATMENT OF DISEASE” (BIOINTERVENE, INC., priority 2020, published 2023)

Experiments:
[1] = biological target: T1, human adenosine A3 receptor (Homo sapiens (Human), UniProt P0DMS8); assay: Adenosine receptor binding assay ([125I]-AB-MECA competition); details: inhibition of 0.15 nM [125I]-AB-MECA binding, membranes of cells expressing human A3 receptor; read-out: hA3 Ki: Ki
Source text: Example 30: Adenosine Receptor Binding Assay
Materials and Reference Compounds: [^125I]-AB-MECA and [^3H]CCPA are both obtained from Amersham Biosciences (Little Chalfont, UK). IB-MECA are obtained from Tocris (Bristol, UK) and N6-cyclopentyl adenosine (CPA) is obtained from Sigma-Alrich (Poole, UK). Cell culture media, G418 and hygromycin are obtained from Invitrogen (Paisley, UK). Fetal calf serum is obtained from Perbio Science (Cheshire, UK). All other reagents are obtained from Fisher Chemicals (Loughborough, UK).
The method followed is that of Yates L, Clark J H, Martin T J, James S, Broadley K J, Kidd E J. Radioligand binding and functional responses of ligands for human recombinant adenosine A3 receptors. Auton Autacoid Pharmacol. 2006; 26(2):191-200. Cells stably transfected with the human adenosine A3 or A1 receptor are grown in Dulbecco's modified Eagles medium with nutrient mixture F12 containing NaHCO3 and Glutamax. Media is supplemented with 10% fetal calf serum, geneticin (G418; 0.67 mg/mL), hygromycin (500 μg/mL) and adenosine deaminase (1 U/mL). Cells are maintained at 37° C. with 5% CO2 in air. Cells are harvested and homogenized in ice-cold Tris buffer [50 mM Tris, 150 mM NaCl, 1 mM ethylenediaminetetraacetic acid (EDTA), pH 7.4] supplemented with the peptidase inhibitors, 4-(2-aminoethyl)benzenesulfonylfluoride (1 mM) and bacitracin (0.1 mg/mL), using a Polytron homogenizer (3×10 s bursts). The homogenate was spun for 10 min (4° C.) at 500 g. The supernatant is retained and the pellet is re-suspended in the buffer, homogenized and spun as above. The combined supernatants are centrifuged for 15 min (4° C.) at 48,000 g. The resultant pellet is re-suspended in the buffer and centrifuged for a second time at 48,000 g. The membrane pellet is then suspended in Tris buffer containing no peptidase inhibitors or adenosine deaminase and stored at −80° C. at a protein concentration of 1 mg/mL.
Binding Assays: Radioligand-binding assays were performed using the adenosine A3 receptor agonist [^125I]-AB-MECA and the A1 receptor agonist [^3H]CCPA. Binding assays were conducted in a total volume of 100 μL containing a 50 mM Tris, pH 7.4 buffer with or without 10 mM MgCl2, 20 μg membranes and either 0.15 nM [^125I]-AB-MECA (for the A3 receptor) or 1 nM [^3H]CCPA (for the A1 receptor). Assays were conducted at room temperature for 60 min (A1 receptor) or 120 min (A3 receptor) and terminated by the addition of 2 ml of ice-cold wash buffer (50 mM Tris, pH 7.4 with or without 10 mM MgCl2) and rapid filtration over 0.03% polyethylenimine-treated Whatman GF/C filters using a Brandel cell harvester (Semat International Ltd., St Albans, UK). Filters were then washed three times with 2 ml of ice-cold buffer. The filter-bound radioactivity were counted using a Compugamma counter (LKB Wallac, Turku, Finland). Competition experiments were performed to investigate the ability of reference compounds and embodiments of the invention to inhibit [^125I]-AB-MECA binding. Non-specific binding were determined using the respective compound at its highest concentration.
Data Analysis: The Kd and Bmax values for binding data were calculated based upon the molar amounts of bound and free [^125I]-AB-MECA. […] IC50 and Ki values and Hill slopes for inhibition of the radioligand binding by the compounds of the invention were calculated from the ligand competition curves using the Excel spreadsheet and the Kd value calculated for either [^125I]-AB-MECA or [^3H]CCPA. The results were expressed as a percent of control specific binding and as a percent inhibition of control specific binding obtained in the presence of the compounds of the invention. The IC50 values (concentration causing a half-maximal inhibition of control specific binding) and Hill coefficients (nH) were determined by non-linear regression analysis of the competition curves generated with mean replicate values using Hill equation curve fitting: […]

[2] = biological target: T1, human adenosine A3 receptor; assay: Intracellular cAMP levels (inhibition of forskolin-stimulated cAMP production); assay type: cell-based; details: for EC50: CHO cells expressing human adenosine A3 receptors, forskolin 10 μM; for CAMP Efficacy (%): maximal response as percentage of the response produced by 100 nM IB-MECA
Source text: Example 31: Intracellular cAMP Levels
The method followed is that published in Yates L, Clark J H, Martin T J, James S, Broadley K J, Kidd E J. Radioligand binding and functional responses of ligands for human recombinant adenosine A3 receptors. Auton Autacoid Pharmacol. 2006 April; 26(2):191-200.
Materials and Cell Culture: Adenosine deaminase was obtained from Roche (Lewes, UK). Forskolin was obtained from Sigma-Aldrich (Poole, UK). The sources of other materials are provided above in Example 1. CHO-K1 cells stably transfected with the human adenosine A3 receptor were grown in Dulbecco's modified Eagles medium with nutrient mixture F12 containing NaHCO3 and Glutamax. Media was supplemented with 10% fetal calf serum, geneticin (G418; 0.67 mg/mL), hygromycin (500 μg/mL) and adenosine deaminase (1 U/mL). Cells were maintained at 37° C. with 5% CO2 in air.
cAMP Measurements: Intracellular cAMP production was measured directly using a non-acetylation cAMP enzyme immunoassay (Amersham Biosciences, Little Chalfont, UK). Cultured CHO cells expressing human adenosine A3 receptors were allowed to plate overnight in 96-well plates in culture medium containing adenosine deaminase. Twenty-four hours later, they were incubated with adenosine analogues or compounds of the invention (0.1 nM-1 μM) for 5 min at 37° C., followed by incubation with forskolin (10 μM) for 10 min. The cells were then lysed with 200 μL of lysis reagent 1 provided with the kit for 10 min to release intracellular cAMP. Aliquots of the supernatants were then transferred to a 96-well microtitre plate coated with donkey anti-rabbit IgG; 100-μL cAMP standards (12.5-3200 fmol/well) were also added to the microtitre plate; 100 μL of rabbit anti-cAMP antibody was added to all wells and incubated at 2-5° C. for 2 h. The antiserum was made up in lysis reagent 2, which sequesters the key component in lysis reagent 1 and ensures that cAMP is free for subsequent analysis. Then 50 μL of cAMP peroxidase conjugate was added to all wells and left to incubate for 60 min at 2-5° C. to allow competition for the antibody between the un-labelled and horse radish peroxidase (HRP)-labelled cAMP. Wells were then washed with buffer and 150 μL of enzyme substrate containing 3,3′,5,5′-tetramethylbenzidine/hydrogen peroxide in 20% (v/v) dimethylformamide was added to each well and left to incubate for 60 min on a Titramax 100 microtitre plate shaker (Heidolph Instruments, Schwabach, Germany) at room temperature for color development. The reaction was stopped by the addition of 100 μL of 1 M sulfuric acid and the optical density (OD) read at 450 nm on a spectrophotometric MRX microplate reader (Dynex Technologies, Chantilly, VA, USA).
Analyses: Each sample/standard was analyzed in duplicate and the resulting OD values averaged. The percent bound (B/Bo) for each standard and sample was calculated using the following relationship: […]
where B is the specific OD for standard/sample and Bo is the specific OD for the zero standard. A standard curve was generated by plotting % B/Bo as a function of the log fmol cAMP standard per well. The fmol per well value for cAMP in each sample was then read from the graph. The results are expressed as a percent of control agonist response: (measured response/control response)*100 in the presence of the compounds of the invention. Concentration-response curves for inhibition of cAMP production were constructed for all compounds of the invention and reference compounds. The EC50 values (concentration producing a half-maximal response) were determined by non-linear regression analysis of the concentration-response curves generated with mean replicate values using Hill equation curve fitting, according to the equation:
where Y=response, A=left asymptote of the curve, D=right asymptote of the curve, C=compound concentration, and C50=EC50, and nH=slope factor. […]

T1 sequence (P0DMS8 whole entry): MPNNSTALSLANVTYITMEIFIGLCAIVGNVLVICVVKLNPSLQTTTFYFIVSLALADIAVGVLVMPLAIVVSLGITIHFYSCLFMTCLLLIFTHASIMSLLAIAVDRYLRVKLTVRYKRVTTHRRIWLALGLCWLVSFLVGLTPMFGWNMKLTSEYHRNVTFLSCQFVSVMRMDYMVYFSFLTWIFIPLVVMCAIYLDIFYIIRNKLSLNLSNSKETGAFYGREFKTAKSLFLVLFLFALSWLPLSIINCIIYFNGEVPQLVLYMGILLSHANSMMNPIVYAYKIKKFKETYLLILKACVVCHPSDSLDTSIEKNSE

| Ki [1] [nM] | EC50 [2] [nM] | CAMP Efficacy (%) [2] [%] | Structure (SMILES) |
| --- | --- | --- | --- |
| 0.72 | 0.22 | 105.1 | CNC(=O)C12C[C@@H]1[C@@H](n1cnc3c(NCC4CC4)cc(Cl)nc31)[C@H](O)[C@@H]2O (stereo in doubt) [Compound 63, (1S,2R,3S,4R,5S)-4-(5-chloro-7-((cyclopropylmethyl)amino)-3H-imidazo[4,5-b]pyridin-3-yl)-2,3-dihydroxy-N-methylbicyclo[3.1.0]hexane-1-carboxamide] |
| 0.33 | 0.31 | 103.26 | CNC(=O)[C@@]12C[C@@H]1[C@@H](n1cnc3c(NCc4cc(Cl)ccc4OCc4cc(C)no4)cc(Cl)nc31)[C@H](O)[C@@H]2O [Compound 62, (1S,2R,3S,4R,5S)-4-(5-chloro-7-((5-chloro-2-((3-methylisoxazol-5-yl)methoxy)benzyl)amino)-3H-imidazo[4,5-b]pyridin-3-yl)-2,3-dihydroxy-N-methylbicyclo[3.1.0]hexane-1-carboxamide] |
| 0.133 | 0.1 | 104.76 | CCNc1cc(C#N)nc2c1ncn2[C@H]1[C@H](O)[C@H](O)[C@]2(C(=O)NC)C[C@H]12 [Compound 70, (1S,2R,3S,4R,5S)-4-(5-cyano-7-(ethylamino)-3H-imidazo[4,5-b]pyridin-3-yl)-2,3-dihydroxy-N-methylbicyclo[3.1.0]hexane-1-carboxamide] |

The next lines start with the compound.

| Structure (SMILES) | Ki [1] [nM] | EC50 [2] [nM] | CAMP Efficacy (%) [2] [%] |
| --- | --- | --- | --- |
| O[C@@H]1[C@H](O)[C@@H]2C[C@@H]2[C@H]1n1cnc2c(NCc3cc(Cl)ccc3Cl)cc(Cl)nc21 [Compound 68, (1R,2R,3S,4R,5S)-4-(5-chloro-7-((2,5-dichlorobenzyl)amino)-3H-imidazo[4,5-b]pyridin-3-yl)bicyclo[3.1.0]hexane-2,3-dio] | 4.75 | 1.33 | 38.22 |
| CCNc1c(C#N)c(Cl)nc2c1ncn2[C@H]1[C@H](O)[C@H](O)[C@@H]2C[C@@H]21 [Compound 93, 5-chloro-3-((1S,2R,3S,4R,5R)-3,4-dihydroxybicyclo[3.1.0]hexan-2-yl)-7-(ethylamino)-3H-imidazo[4,5-b]pyridine-6-carbonitrile] | 2.59 | 15.2 | 52 |
